Data on two compounds can be found in patent US6160004A, “C-10 carbon-substituted artemisinin-like trioxane compounds having antimalarial, antiproliferative and antitumor activities” (priority 1998, dated 2000).

Read-outs that look alike come from different tables or passages of the source.

What all share (assay type): cell-based
The test system of one test is EKVX. Description: NCI 60 cell line panel screening assay (SRB), EKVX. Particulars: Homo sapiens, non-small cell lung cancer, 48 h, read-out: Log10 GI50 (converted).
The test system of the next test is HOP-62. Description: cells. Particulars: Homo sapiens; HOP-62, non-small cell lung cancer, 48 h; read-out: Log10 GI50 (converted).
The subject of the next test is NCI-H460. Description: cells. Particulars: Homo sapiens, NCI-H460, non-small cell lung cancer, 48 h.
A further test relates to COLO 205. Description: NCI 60 cell line panel screening assay (SRB), COLO 205. The following applies: Homo sapiens, read-out: Log10 GI50 (converted).
In the next test the test system is HCT-116. In words: cells.
A further test concerns HCT-15. In words: cells. Particulars: Homo sapiens, HCT-15, colon cancer, 48 h.
Another test concerns KM12. Description: cells. The following applies: Homo sapiens, read-out: Log10 GI50 (converted).
In a further test the test system is SW-620. Description: NCI 60 cell line panel screening assay (SRB), SW-620. The following applies: Homo sapiens; for GI50: read-out: Log10 GI50 (converted).
The test system of a further test is SNB-75. In words: cells. Particulars: Homo sapiens, SNB-75, CNS cancer, 48 h; for GI50: read-out: Log10 GI50 (converted).
The test system of a further test is SK-MEL-28. Description: cells. Particulars: Homo sapiens, SK-MEL-28, melanoma, 48 h.
The test system of another test is OVCAR-5. Description: cells. Particulars: Homo sapiens; OVCAR-5, ovarian cancer, 48 h; read-out: Log10 GI50 (converted).
Another test concerns OVCAR-8. In words: cells. Particulars: Homo sapiens; OVCAR-8, ovarian cancer, 48 h; read-out: Log10 GI50 (converted).
A further test concerns 786-0. In words: cells. Particulars: Homo sapiens; for GI50: read-out: Log10 GI50 (converted).
For the next test, the system named is ACHN. Description: NCI 60 cell line panel screening assay (SRB), ACHN. The following applies: Homo sapiens, renal cancer, 48 h, read-out: Log10 GI50 (converted).
Another test relates to RXF 393. In words: cells. The following applies: Homo sapiens; RXF 393, renal cancer, 48 h; read-out: Log10 TGI.
The next test relates to HS 578T. Description: cells. The following applies: Homo sapiens, 48 h, read-out: Log10 GI50 (converted).
The subject of the next test is HL-60(TB). Description: cells. Particulars: Homo sapiens, HL-60, 48 h.
The next test deals with A549/ATCC. In words: NCI 60 cell line panel screening assay (SRB), A549/ATCC. The following applies: Homo sapiens, non-small cell lung cancer, 48 h, read-out: Log10 GI50 (converted).
The test system of a further test is NCI-H522. Description: cells. Particulars: Homo sapiens, NCI-H522, 48 h.
Another test has as its system LOX IMVI. Description: cells. The following applies: Homo sapiens, 48 h, read-out: Log10 GI50 (converted).
Another test deals with OVCAR-4. Description: cells. Particulars: Homo sapiens.
For a further test, the system named is UO-31. In words: NCI 60 cell line panel screening assay (SRB), UO-31. The following applies: Homo sapiens, UO-31, renal cancer, 48 h.
The next test deals with MDA-MB435. Description: NCI 60 cell line panel screening assay (SRB), MDA-MB435. The following applies: Homo sapiens, MDA-MB-435, 48 h.
Test [1] deals with chloroquine-sensitive P. falciparum (NF54). In words: In vitro antimalarial activity ([3H]hypoxanthine incorporation). The following applies: Plasmodium falciparum; chloroquine-sensitive P. falciparum NF54, in vitro.
Where [2] appears, read: read-out: Log10 GI50 (converted).
Setting [3] is: read-out: Log10 LC50 (converted).

A word on the GI50: it is the concentration giving 50% growth inhibition. As a reminder, the IC50 is the concentration needed to halve the response being measured. A high value points to weaker potency.

`C[C@@H]1CC[C@H]2[C@@H](C)C(=O)O[C@@H]3O[C@@]4(C)CC[C@@H]1[C@]32OO4` [Artemisinin]: the GI50 with EKVX was greater than 100 µM; in the test with HOP-62, greater than 100 µM; in the test on NCI-H460 (setting [2]), greater than 100 µM; in the test with COLO 205 (COLO 205, colon cancer, 48 h), greater than 100 µM; in the test on HCT-116 (Homo sapiens, HCT-116, 48 h; read-out: Log10 GI50 (converted)), 100 µM; with HCT-15 (setting [2]), greater than 100 µM. Besides, the GI50 is greater than 100 µM in the test with KM12 (KM12, colon cancer, 48 h); greater than 100 µM with SW-620 (SW-620, colon cancer, 48 h); greater than 100 µM with SNB-75; greater than 100 µM with SK-MEL-28 (setting [2]); greater than 100 µM in the test with OVCAR-5; greater than 100 µM with OVCAR-8. Also, the GI50 is greater than 100 µM with 786-0 (786-0, renal cancer, 48 h); greater than 100 µM in the test on ACHN; greater than 100 µM in the test on HS 578T (HS 578T, breast cancer). Moreover, the IC (TGI) in the test on NCI-H460 (read-out: Log10 TGI (converted)) was greater than 100 µM; with HCT-15 (read-out: Log10 TGI), greater than 100 µM; with 786-0 (786-0, renal cancer, 48 h, read-out: Log10 TGI), greater than 100 µM; in the test with RXF 393 it was greater than 100 µM.
Take `CC1CCC2C(C)C(CC(=O)c3ccc(C(=O)CC4OC5OC6(C)CCC7C(C)CCC(C4C)C57OO6)cc3)OC3OC4(C)CCC1C32OO4` (centres unmarked) [Dimer 38]: the GI50 with HL-60(TB) (setting [2]) is less than 0.01 µM; with A549/ATCC it was less than 0.01 µM; with NCI-H522 (setting [2]) it was less than 0.01 µM; in the test on COLO 205 (COLO 205, 48 h) it was less than 0.01 µM; in the test with HCT-116 (Homo sapiens, HCT-116, 48 h, read-out: Log10 GI50 (converted)), less than 0.01 µM; with KM12 (KM12, 48 h), less than 0.01 µM. For the same compound, the GI50 is less than 0.01 µM in the test with SW-620 (SW-620, 48 h); 0.117 µM in the test with SNB-75; less than 0.01 µM in the test with LOX IMVI; 0.0151 µM in the test with 786-0 (786-0, 48 h); 0.024 µM in the test on UO-31 (setting [2]); less than 0.01 µM in the test with HS 578T (Hs-578T). Besides, the GI50 with MDA-MB435 (setting [2]) was less than 0.01 µM. Further, the CC50 is greater than 100 µM in the test on HL-60(TB) (setting [3]); greater than 100 µM in the test with NCI-H522 (setting [3]); greater than 100 µM in the test on HCT-15 (setting [3]); greater than 100 µM in the test with SW-620 (SW-620, colon cancer, 48 h, read-out: Log10 LC50 (converted)); greater than 100 µM in the test with SNB-75 (setting [3]); greater than 100 µM in the test with SK-MEL-28 (setting [3]). Moreover, the CC50 in the test on OVCAR-4 (OVCAR-4, ovarian cancer, 48 h, read-out: Log10 LC50 (converted)) is greater than 100 µM; in the test with UO-31 (setting [3]) it was greater than 100 µM; in the test on MDA-MB435 (setting [3]) it was greater than 100 µM. In addition, the IC (TGI) with SK-MEL-28 (read-out: Log10 TGI) was greater than 100 µM; in the test on OVCAR-4 (OVCAR-4, 48 h, read-out: Log10 TGI), greater than 100 µM. This compound also showed an IC50 in [1] of 0.0019 µM.
